This note sets out measurements from publication PMC10004157.

One may read the melting point as the temperature of the solid-liquid transition.

For the molecule `C[C@H](CO)Nc1nc(NCc2cccc(F)c2F)nc2cnccc12` [Compound 26a, (2R)-2-[(2-(2,3-Difluorobenzylamino)-pyrido[3,4-d]pyrimidine-4-yl)amino]propanol], the melting point was in the range of 136 to 140 °C. With `C[C@H](CO)Nc1nc(SCc2cccc(F)c2F)nc2cnc(N)cc12` [Compound 21, (2R)-2-[(6-Amino-2-(2,3-difluorobenzylmercapto)-pyrido[3,4-d]pyrimidine-4-yl)amino]propanol], the melting point is 174 to 176 °C. Next, `Cc1ccc(-c2cc3c(N[C@H](C)CO)nc(SCc4cccc(F)c4F)nc3cn2)o1` [Compound 17c, (2R)-2-[(2-(2,3-Difluorobenzylmercapto)-6-(5-methylfuran-2-yl)-pyrido[3,4-d]pyrimidine-4-yl)amino]propanol]: 162 to 164 °C; `OCCNc1nc(SCc2cccc(F)c2F)nc2cnccc12` [Compound 24d, 3-[(2-(2,3-Difluorobenzylmercapto)-pyrido[3,4-d]pyrimidine-4-yl)amino]ethanol]: 181 to 183 °C.

Turning to `CCCCCCSc1nc(N[C@H](C)CO)c2ccncc2n1` [Compound 26e, (2R)-2-[(2-(Hexylmercapto)-pyrido[3,4-d]pyrimidine-4-yl)amino]propanol], the melting point fell in the range of 147 to 149 °C.

Molecule `C[C@H](CO)Nc1nc(SCc2cccc(F)c2F)nc2cnc(-c3ccco3)cc12` [Compound 17b, (2R)-2-[(2-(2,3-Difluorobenzylmercapto)-6-(2-furanyl)-pyrido[3,4-d]pyrimidine-4-yl)amino]propanol] gave a melting point of 163 to 165 °C. As for `C[C@H](CO)Nc1nc(SCc2cccc(F)c2F)nc2cncc(Cl)c12` [Compound 9, (2R)-2-[(5-Chloro-2-(2,3-difluorobenzylmercapto)-pyrido[3,4-d]pyrimidine-4-yl)amino]propanol], the figure is 146 to 148 °C; as for `CC(C)(CO)Nc1nc(SCc2cccc(F)c2F)nc2cnccc12` [Compound 24b, 2-[(2-(2,3-Difluorobenzylmercapto)-pyrido[3,4-d]pyrimidine-4-yl)amino]-2-methyl-propan-1-ol], 166 to 168 °C; as for `C[C@H](CO)Nc1nc(SCc2cccc(F)c2F)nc2cnc(Cl)cc12` [Compound 16a, (2R)-2-[(6-Chloro-2-(2,3-difluorobenzylmercapto)-pyrido[3,4-d]pyrimidine-4-yl)amino]propanol], 211 to 213 °C.

For `C[C@H](CO)Nc1nc(Sc2ccccc2)nc2cnccc12` [Compound 26c, (2R)-2-[(2-(Phenylmercapto)-pyrido[3,4-d]pyrimidine-4-yl)amino]propanol], the melting point fell in the range of 193 to 196 °C.

In turn, `CC[C@H](CO)Nc1nc(SCc2cccc(F)c2F)nc2cnccc12` [Compound 24a, (2R)-2-[(2-(2,3-Difluorobenzylmercapto)-pyrido[3,4-d]pyrimidine-4-yl)amino]butanol] registered a melting point of 174 to 176 °C. As for `OCC(O)CNc1nc(SCc2cccc(F)c2F)nc2cnccc12` (stereo not drawn) [Compound 24c, 3-[(2-(2,3-Difluorobenzylmercapto)-pyrido[3,4-d]pyrimidine-4-yl)amino]propan-1,2-diol], the melting point was 156 to 158 °C. Regarding `C[C@H](CO)Nc1nc(SCc2cccc(F)c2F)nc2cnc(-n3ccnc3)cc12` [Compound 16b, (2R)-2-[(6-Imidazolyl-2-(2,3-difluorobenzylmercapto)-pyrido[3,4-d]pyrimidine-4-yl)amino]propanol], the melting point was 245 to 247 °C. Molecule `C[C@H](CO)Nc1nc(SCCc2ccccc2)nc2cnccc12` [Compound 26d, (2R)-2-[(2-(Phenylethylmercapto)-pyrido[3,4-d]pyrimidine-4-yl)amino]propanol] registered a melting point of 182 to 184 °C.

Turning to `C[C@H](CO)Nc1nc(SCc2cccc(F)c2F)nc2cnc(-c3cccs3)cc12` [Compound 17d, (2R)-2-[(2-(2,3-Difluorobenzylmercapto)-6-(2-thienyl)-pyrido[3,4-d]pyrimidine-4-yl)amino]propanol], the melting point was 176 to 178 °C. As for `C[C@H](CO)Nc1nc(OCc2cccc(F)c2F)nc2cnccc12` [Compound 26b, (2R)-2-[(2-(2,3-Difluorobenzyloxy)-pyrido[3,4-d]pyrimidine-4-yl)amino]propanol], the figure is 167 to 169 °C; as for `OCCOc1nc(SCc2cccc(F)c2F)nc2cnccc12` [Compound 24e, 3-[(2-(2,3-Difluorobenzylmercapto)-pyrido[3,4-d]pyrimidine-4-yl)oxy]ethanol], 181 to 183 °C. Next, `C[C@H](CO)Nc1nc(SCc2cccc(F)c2F)nc2cnc(-c3ccccc3)cc12` [Compound 17a, (2R)-2-[(2-(2,3-Difluorobenzylmercapto)-6-phenyl-pyrido[3,4-d]pyrimidine-4-yl)amino]propanol]: 202 to 204 °C.
